Laboratory results taken from patent US20220088204A1, “ANTICANCER DRUGS AND METHODS OF MAKING AND USING SAME” (YALE UNIVERSITY, priority 2019, published 2022).
“Also recorded” adds a separate entry of the source.

Assays:
[1] = tested on: PEO1 ovarian cancer cells; assay: pH-dependent cell growth inhibition, transient treatment; assay type: cell-based; conditions: pH 7.4 vs pH 6.2
Description: FIG. 9 depicts pH-dependent cell growth inhibition of PEO1 ovarian cancer cells in culture, treated transiently with various prodrugs of the invention, as described above.
FIG. 10 depicts pH-dependent cell growth inhibition of PEO1 ovarian cancer cells in culture, treated transiently with an anticancer kinase inhibitor drug, Osimertinib, or a compound of the invention, based on an active core of that drug, YU253673.
(§1) In order to evaluate pH-dependent activity, treatments are performed at atypical cell culture conditions. […] Several cell lines have been evaluated using this method and for each, cell seeding density and treatment duration is independently experimentally determined. Each experiment is normalized to sham and complete activity controls for each pH condition.
Similar results have been obtained from pH-dependent cell growth inhibition assays with other classes of Drug using the prodrug approach.

[2] = pKA of the ionizable group; assay type: physicochemical; conditions: read-out: acidic pKA of the carboxyl group
Excerpt: The Henderson-Hasselbalch equation allows for calculating the neutral fraction of an ionizable drug at healthy tissue vs. tumor extracellular pH, and thus predicting the associated cell-permeable fractions. […] The carboxyl group of YU241528 has an acidic pKA of ˜4.4, so the predicted membrane permeable fraction is ˜8-fold less at a pH of 7.4 than at 6.5.

HeLa cells = assay: pH-dependent cell uptake by flow cytometry; assay type: cell-based; conditions: HeLa cells in suspension, 5 μM, 1 hour, pH 7.4 vs pH 6.5
Excerpt: FIGS. 5A-5B depict representative flow cytometry traces of pH-dependent cell treatments. […] Normalized cell counts (Y-axes) are plotted vs. doxorubicin fluorescence intensity per cell (X-axes).

[3] = Serum stability of prodrug in 20% mouse serum (LCMS, 490 nm); assay type: in vitro ADME; conditions: 37° C.
Description: FIG. 4A depicts liquid chromatography data showing the stability of YU241528 in serum.
The prodrug strategies of this invention are thought to impart their benefits during the distribution and cell uptake steps of anticancer therapy. In certain embodiments, a prodrug is stable in the blood for a period sufficient to allow for cell uptake and systemic clearance. To test this, 50 μM YU241528 in a solution of PBS, pH 7.4, containing 20% mouse serum was incubated at 37° C. At regular intervals, aliquots were taken and mixed with 2 volumes of ethanol to precipitate serum proteins, then centrifuged. Supernatants were analyzed by LCMS. […] The predominant peak was identified as YU241528 by mass spectrometry.

[4] = Blood levels after tail vein injection; assay type: in vivo, adult female balb/c mice
Description: Given that the drug's distribution and clearance can be expected to be substantially complete by about 6 hours after administration, in certain embodiments the peak intracellular dose is achieved long before this process might interfere to a significant degree, even assuming the altered metabolite is indeed compromised in its activity. […] In certain embodiments, the serum stability of YU241528 allows for effective therapy. […] In certain embodiments, the prodrug undergoes a different elimination path, as hepatobiliary elimination of weakly-ionic organic substances is sensitive to charge, size, and lipophilicity.

[5] = Reductive activation / drug release in 5 mM GSH (simulated cytosol), LCMS; assay type: in vitro ADME; conditions: PBS containing 5 mM GSH, PBS pH 7.4, 5 mM GSH, 37° C., read-out: t1/2 of reduction of the disulfide
Description: In certain embodiments, the prodrug releases the active form of the drug once inside a cancer cell. Once inside the cell, drug release can be triggered by reduction of the disulfide bond in the linker. To evaluate the reductive activation of drug release, 50 μM YU241528 in a solution of PBS, pH 7.4, containing 5 mM GSH (a typical intracellular concentration of the predominant biological reducing agent) was incubated at 37° C. Aliquots were taken at regular intervals and analyzed by LCMS.

[6] = tested on: MDA-MB-231 breast cancer cells; assay: pH-dependent cell growth inhibition, CellTiter-Glo; assay type: cell-based, Human; conditions: 6 hours treatment at pH 7.4 vs pH 6.2, 72 hours growth
Description: Cells treated for 6 hours at pH 7.4 (normal physiological pH, X traces) or pH 6.2 (acidic solid tumor pH, Y traces) were subsequently allowed to grow in normal growth medium for 72 hours, then cell viability was evaluated using the CellTiter-Glo assay kit (Promega). Normalized percent cell growth inhibition is plotted on the left side of each panel and IC50 values reported at each pH from non-linear regression analysis.
as §1
Human MDA-MB-231 breast cancer cells seeded at low density on tissue culture treated 384-well plates, allowed to adhere and grow in serum-supplemented growth medium for 24 hours, then treated under pH-controlled conditions for 6 hours, and finally washed and grown in fresh growth media for 72 hours were assessed for cell survival using the CellTiter-Glo assay system (Promega) (FIG. 6).

[7] = Body weight of treated tumor-bearing mice; assay type: in vivo, Balb/c mice; conditions: IV once daily for 5 days, mice with EMT-6 flank tumors
Excerpt: FIG. 7 depicts representative in vivo study on the efficacy and toxicity of compounds of the invention. […] Mean tumor volume and mean body weight graphs are shown for groups of 10 tumor-bearing mice.

[8] = cited from earlier work

## C=CC(=O)Nc1cc(Nc2nccc(-c3cn(C)c4ccccc34)n2)c(OC)cc1N(C)CCN(C)C [Osimertinib]
[1]
  pH-dependent bias of cell growth inhibition: slightly lower IC50 value at healthy pH 7.4

## COc1cccc2c1C(=O)c1c(O)c3c(c(O)c1C2=O)C[C@@](O)(C(=O)CO)C[C@@H]3O[C@H]1C[C@H](NC(=O)OCCSSCc2ccc(C(=O)O)cc2)[C@H](O)[C@H](C)O1 [YU241528]
[2]
  pKa: ~4.4
HeLa cells
  pH preference of cell uptake: preferentially taken up by cells at cancerous pH 6.5 versus cells at normal pH 7.4
[3]; 50 μM, 20% mouse serum, over 6 hours of incubation
  release of free doxorubicin in serum: no active doxorubicin is released; also recorded: no free doxorubicin was detected
[3]; mouse, 20% mouse serum in PBS, pH 7.4, 50 μM, PBS pH 7.4, 20% mouse serum, read-out: t1/2 of interaction with serum
  half-life at 50 μM: > 6 h
[4]; 6 hours
  level in the blood at 6 hours post injection: detectable levels
[4]; 24 hours
  level in the blood at 24 hours post injection: undetectable
[4]; female, balb/c, mouse, blood, intravenous, read-out: non-compartmental half-life in blood (converted)
  half-life: ~1 h
[5]
  half-life at 50 μM: ~2.7 min

## COc1cccc2c1C(=O)c1c(O)c3c(c(O)c1C2=O)C[C@@](O)(C(=O)CO)C[C@@H]3O[C@H]1C[C@H](NC(=O)OCCSSCCCCCCCC(=O)O)[C@H](O)[C@H](C)O1 [YU241531]
[6]
  pH-dependent bias of cell growth inhibition: greater growth inhibition at acidic tumor pH
[7]
  weight loss (mean body weight) compared to sham treated controls: no detectable weight loss

## COc1cccc2c1C(=O)c1c(O)c3c(c(O)c1C2=O)C[C@@](O)(C(=O)CO)C[C@@H]3O[C@H]1C[C@H](NC(=O)OCCSSCCCc2c(F)c(F)c(O)c(F)c2F)[C@H](O)[C@H](C)O1 [YU244206]
[6]
  pH-dependent bias of cell growth inhibition: greater growth inhibition at acidic tumor pH
[7]
  weight loss (mean body weight) compared to sham treated controls: no detectable weight loss

## COc1cccc2c1C(=O)c1c(O)c3c(c(O)c1C2=O)C[C@@](O)(C(=O)CO)C[C@@H]3O[C@H]1C[C@H](N)[C@H](O)[C@H](C)O1 [doxorubicin, reference compound]
HeLa cells
  pH preference of cell uptake: greater uptake into cells at normal physiologic pH 7.4 than into cells at cancerous pH 6.5
[6]
  pH-dependent bias of cell growth inhibition: greater growth inhibition at basic healthy pH
[8]
  basic pKA of the amine group: ~8
